The text below walks through data of ChEMBL document CHEMBL1201862, “PubChem BioAssay data set” (2004).

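Protocol summary: plate cells (96-well), add compound at 5 concentrations, incubate 48 h, interpolate endpoints linearly. Here, GI50 denotes the concentration required for 50% inhibition of growth.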 The source made the active and inactive calls. No stated cut-off is given here; in the data, active = GI50 up to about 1.1 µM and inactive = higher.

Some test systems named below: HT-29; PC-3; OVCAR-4; Malme-3M; A549; K562; SF-539; LOX IMVI; SN12C; ACHN; UACC-257; DU-145; OVCAR-3; SF-295; A498; EKVX; MCF7; BT-549; MDA-N; SK-MEL-5.
Common to all, as to experiment: growth of human tumour cells (NCI), 48 h

As for `CC(C)(C)N/N=C(\C(=O)NC1=C(Cl)C(=O)c2ccccc2C1=O)C1C=CCS1(=O)=O` (stereo not given), the GI50 is 14.4 µM (inactive) with HT-29; 18.1 µM (inactive) in the experiment with PC-3; 16.4 µM (inactive) in the experiment on OVCAR-4; 2.27 µM (inactive) with Malme-3M; 16.9 µM (inactive) with A549; > 100 µM (inactive) in the experiment with K562. The GI50 was 23.1 µM (inactive) with SF-539; 7.98 µM (inactive) with LOX IMVI; 15.1 µM (inactive) in the experiment with SN12C; 16.1 µM (inactive) in the experiment on ACHN; 13.6 µM (inactive) in the experiment on UACC-257; 11.1 µM (inactive) in the experiment with DU-145. Moreover, the GI50 with OVCAR-3 is 2.65 µM (inactive); in the experiment on SF-295, 12.6 µM (inactive); with A498, 21.2 µM (inactive); in the experiment with EKVX, 16.5 µM (inactive); with MCF7, 13.1 µM (inactive); in the experiment with BT-549 it was 12.4 µM (inactive). In addition, in the experiment on MDA-N, the GI50 was 2.44 µM (inactive).
`Cc1nc2c(o1)C(=O)c1ccccc1/C2=N/C1CCCCC1N` (stereo not given): the GI50 is 2.28 µM (inactive) with HT-29; 0.321 µM (active) with PC-3; 0.308 µM (active) with OVCAR-4; 0.133 µM (active) with Malme-3M; 0.11 µM (active) with SK-MEL-5; 1.46 µM (inactive) in the experiment on A549. Also, the GI50 in the experiment with K562 was 0.235 µM (active); in the experiment with SF-539, 0.32 µM (active); in the experiment with LOX IMVI, 0.16 µM (active); in the experiment on SN12C, 0.386 µM (active); in the experiment with ACHN, 0.649 µM (active); with UACC-257, 0.144 µM (active). Further, the GI50 is 1.48 µM (inactive) in the experiment on DU-145; 0.249 µM (active) in the experiment with OVCAR-3; 1.73 µM (inactive) with A498; 1.11 µM (active) in the experiment with EKVX; 0.265 µM (active) in the experiment on MCF7; 0.41 µM (active) in the experiment on BT-549. Further, in the experiment on MDA-N, the GI50 is 0.185 µM (active).
As to `CN(Cc1cccc2ccsc12)/N=C\c1ccc(Cl)cc1`, the GI50 is 26.7 µM (inactive) with HT-29; > 100 µM (inactive) with PC-3; 46.1 µM (inactive) in the experiment with OVCAR-4; > 100 µM (inactive) in the experiment on Malme-3M; 15.5 µM (inactive) with SK-MEL-5; 30.4 µM (inactive) in the experiment with A549. Further, the GI50 was 40.6 µM (inactive) in the experiment with K562; > 100 µM (inactive) in the experiment on LOX IMVI; > 100 µM (inactive) with SN12C; > 100 µM (inactive) in the experiment with ACHN; 18.8 µM (inactive) with UACC-257; > 100 µM (inactive) in the experiment with DU-145. Further, the GI50 with OVCAR-3 was 10.6 µM (inactive); in the experiment on SF-295, 30.9 µM (inactive); in the experiment with A498 it was 93.3 µM (inactive); in the experiment with EKVX, 50.4 µM (inactive); in the experiment on MCF7, 32.7 µM (inactive); in the experiment on BT-549, > 100 µM (inactive). The GI50 in the experiment with MDA-N was 39.2 µM (inactive).
On to `CN1N(c2ccccc2)C(=O)C2=NC=C(C#N)C(=N)C21C` (stereo not given), for which the GI50 with PC-3, in the experiment on OVCAR-4, in the experiment on Malme-3M, in the experiment on SK-MEL-5, in the experiment with A549 and in the experiment with K562 was > 100 µM (inactive) each time. Besides, the GI50 in the experiment on SF-539 was > 100 µM (inactive); in the experiment on LOX IMVI, > 100 µM (inactive); in the experiment with SN12C, > 100 µM (inactive); in the experiment on ACHN it was 97.7 µM (inactive); in the experiment with UACC-257, > 100 µM (inactive); in the experiment with DU-145, > 100 µM (inactive). The GI50 with OVCAR-3, in the experiment on SF-295, with A498, in the experiment with EKVX, with MCF7 and with BT-549 was > 100 µM (inactive) each time. Further, the GI50 in the experiment on MDA-N was > 100 µM (inactive).
On to `COc1ccc(C(=O)/C=C/c2ccc(OCC(=O)O)cc2)cc1`, for which the GI50 in the experiment with HT-29 was > 100 µM (inactive); in the experiment with PC-3 it was > 100 µM (inactive); in the experiment on Malme-3M, 50.7 µM (inactive); with SK-MEL-5, > 100 µM (inactive); with A549, > 100 µM (inactive); with K562, 39.4 µM (inactive). Also, the GI50 in the experiment with SF-539 is 46.6 µM (inactive); in the experiment with LOX IMVI it was 33.6 µM (inactive); in the experiment on SN12C, 71.3 µM (inactive); in the experiment with ACHN it was > 100 µM (inactive); with DU-145, > 100 µM (inactive); in the experiment on OVCAR-3, 60.4 µM (inactive). In addition, the GI50 in the experiment with SF-295 is > 100 µM (inactive); in the experiment on A498 it was > 100 µM (inactive); with EKVX it was > 100 µM (inactive); with MCF7, 42.8 µM (inactive); with BT-549, 38.6 µM (inactive); with MDA-N, 34.4 µM (inactive).
Turning to `Oc1cc(O)cc(-c2nc3cc(F)ccc3s2)c1`, the GI50 with HT-29 is 21.4 µM (inactive); in the experiment on PC-3 it was 25.1 µM (inactive); in the experiment with OVCAR-4, 18.5 µM (inactive); in the experiment with Malme-3M it was 31.6 µM (inactive); in the experiment on SK-MEL-5 it was 17.5 µM (inactive); with A549 it was 26.1 µM (inactive). Further, the GI50 was 29 µM (inactive) with SF-539; 18.5 µM (inactive) in the experiment with LOX IMVI; 29.4 µM (inactive) in the experiment on SN12C; 24.7 µM (inactive) in the experiment on ACHN; 16.4 µM (inactive) in the experiment on UACC-257; 32.8 µM (inactive) with DU-145. For the same compound, the GI50 in the experiment with OVCAR-3 is 22.6 µM (inactive); in the experiment on SF-295 it was 17.8 µM (inactive); with A498, 18.5 µM (inactive); with MCF7, 20.3 µM (inactive); in the experiment on BT-549, 20.2 µM (inactive); in the experiment on MDA-N, 30.5 µM (inactive).
For the compound `Nc1nc2cc3nc(N)c(N)nc3cc2nc1N`, the GI50 in the experiment with HT-29 is > 100 µM (inactive); in the experiment with PC-3, > 100 µM (inactive); with Malme-3M, > 100 µM (inactive); in the experiment on SK-MEL-5, > 100 µM (inactive); in the experiment with A549, > 100 µM (inactive); in the experiment with K562, > 10 µM (inactive). Further, the GI50 in the experiment with SF-539, in the experiment with LOX IMVI, with SN12C, with ACHN, with UACC-257 and with DU-145 was > 100 µM (inactive) in each case. In addition, the GI50 in the experiment on OVCAR-3, in the experiment on SF-295, in the experiment with A498, in the experiment on EKVX, in the experiment on MCF7 and in the experiment with BT-549 was > 100 µM (inactive) in each case. For the same compound, the GI50 with MDA-N is > 100 µM (inactive).
Consider `CCc1nc(N)nc(N)c1-c1ccc(NCCc2ccccc2)c([N+](=O)[O-])c1`, for which the GI50 with HT-29 is 0.195 µM (active); in the experiment on PC-3 it was 0.272 µM (active); in the experiment with OVCAR-4 it was 3.24 µM (inactive); in the experiment on Malme-3M, 2.38 µM (inactive); in the experiment on SK-MEL-5 it was 0.486 µM (active); in the experiment with A549, 0.0861 µM (active). In addition, the GI50 in the experiment with K562 was 0.0325 µM (active); with SF-539, 0.741 µM (active); with LOX IMVI, 0.199 µM (active); in the experiment on SN12C, 1.34 µM (inactive); with ACHN it was 0.353 µM (active); in the experiment with UACC-257, 1.77 µM (inactive). Besides, the GI50 with DU-145 is 1.14 µM (inactive); in the experiment on OVCAR-3, 1.44 µM (inactive); in the experiment on SF-295, 0.317 µM (active); in the experiment with A498, 3.05 µM (inactive); with EKVX it was 3.34 µM (inactive); with MCF7 it was 1.13 µM (inactive). In addition, the GI50 with BT-549 was 4.62 µM (inactive); in the experiment with MDA-N it was 0.195 µM (active).
Consider `O=C1C(Cl)=C(NCCN2CCOCC2)C(=O)c2ncccc21`, for which the GI50 was 2.96 µM (inactive) in the experiment with HT-29; 2.59 µM (inactive) in the experiment with PC-3; 1.71 µM (inactive) in the experiment with Malme-3M; 0.723 µM (active) with SK-MEL-5; 2 µM (inactive) with A549; 0.378 µM (active) with K562. Also, the GI50 in the experiment with SF-539 was 1.72 µM (inactive); with LOX IMVI it was 1.01 µM (active); in the experiment with SN12C, 1.73 µM (inactive); with ACHN, 2.82 µM (inactive); in the experiment with UACC-257, 1.71 µM (inactive); in the experiment on DU-145 it was 1.66 µM (inactive). Besides, the GI50 was 1.6 µM (inactive) in the experiment on OVCAR-3; 1.82 µM (inactive) in the experiment on SF-295; 2.97 µM (inactive) with A498; 1.75 µM (inactive) with EKVX; 1.66 µM (inactive) in the experiment on MCF7; 1.79 µM (inactive) in the experiment with BT-549. The GI50 in the experiment with MDA-N is 0.2 µM (active).
As to `CCOC(=O)C1(C#N)C(=O)c2cc[n+](CC[n+]3ccc4c(c3)C(=O)C(C#N)(C(=O)OCC)C4=O)cc2C1=O` (stereo not given), the GI50 is > 100 µM (inactive) in the experiment on HT-29; > 100 µM (inactive) in the experiment with PC-3; > 100 µM (inactive) in the experiment with OVCAR-4; 60.4 µM (inactive) with Malme-3M; 18.4 µM (inactive) with SK-MEL-5; > 100 µM (inactive) in the experiment with A549. Moreover, the GI50 was 86.1 µM (inactive) with K562; > 100 µM (inactive) with SF-539; 74.1 µM (inactive) in the experiment with LOX IMVI; > 100 µM (inactive) with SN12C; > 100 µM (inactive) in the experiment on ACHN; > 100 µM (inactive) with UACC-257. The GI50 was > 100 µM (inactive) in the experiment with DU-145; 25.4 µM (inactive) in the experiment on OVCAR-3; > 100 µM (inactive) with SF-295; > 100 µM (inactive) with A498; > 100 µM (inactive) in the experiment on EKVX; > 100 µM (inactive) in the experiment with MCF7. Besides, the GI50 with BT-549 was > 100 µM (inactive); with MDA-N it was 64.1 µM (inactive).
